# Results as given in patent US9822099B2, “Triazole derivatives” (priority 2013, dated 2017).
# Read-outs that look alike come from different tables or passages of the source. Marks after values point to notes of the source that are not given here.
# Experiments:
# [1] = system: Sphaerotheca fuliginea; experiment: Example E: in vivo preventive test on Sphaerotheca fuliginea (powdery mildew on cucurbits); details: gherkin plants, preventive spray, evaluated 15 days after inoculation
# Experimental: (§1) The young plants of gherkin are treated by spraying the active ingredient prepared as described above. Control plants are treated only with an aqueous solution of acetone/Dimethyl sulfoxide/Tween®. After 24 hours, the plants are contaminated by spraying the leaves with an aqueous suspension of Sphaerotheca fuliginea spores.
# [2] = system: Septoria tritici; experiment: Example D: in vivo preventive test on Septoria tritici (leaf spot on wheat); details: wheat plants, preventive spray, evaluated 24 days after inoculation
# Experimental: as §1, with “wheat” for “gherkin”, “Septoria tritici” for “Sphaerotheca fuliginea”
# [3] = system: Uromyces appendiculatus; experiment: Example F: in vivo preventive test on Uromyces appendiculatus (bean rust); details: 100 ppm of active ingredient; bean plants, preventive spray; evaluated 11 days after inoculation
# Experimental: as §1, with “bean” for “gherkin”, “Uromyces appendiculatus” for “Sphaerotheca fuliginea”
# [4] = method [a]: LC-MS at pH 2.7, 0.1% formic acid in water / acetonitrile gradient
# [5] = method [b]: LC-MS at pH 7.8, 0.001 molar ammonium hydrogen carbonate in water / acetonitrile gradient
Compound,LogP (pH 2.7),LogP [4],also measured
OC(Cc1c(Cl)cncc1Cl)(Cn1cncn1)c1ccc(Cl)nc1 (racemic) [Example I-63],1.89^[a],–,–
Cc1cc(C(O)(Cc2ccncc2Cl)Cn2cncn2)nn1C (racemic) [Example I-66],0.84^[a],–,Eff. % ([1]; 500 ppm of active ingredient): 80%; Eff. % ([2]; 500 ppm of active ingredient): 92%
OC(Cc1ccccc1F)(Cc1cc(Cl)ncc1F)Cn1cncn1 (racemic) [Example I-73],2.34^[a],–,Eff. % ([1]; 500 ppm of active ingredient): 100%; Eff. % ([2]; 500 ppm of active ingredient): 100%
OC(Cc1cccc(Cl)c1)(Cc1cc(Cl)ncc1F)Cn1cncn1 (racemic) [Example I-74],2.69^[a],–,Eff. % ([1]; 500 ppm of active ingredient): 100%; Eff. % ([2]; 500 ppm of active ingredient): 100%
OC(Cc1ccncc1Cl)(Cn1cncn1)C1(c2ccccc2)CC1 (racemic) [Example I-78],2.23^[a],–,–
OC(Cc1ccccc1F)(Cc1ccnc(Cl)c1F)Cn1cncn1 (racemic) [Example I-85],1.73^[a],–,Eff. % ([1]; 500 ppm of active ingredient): 89%; Eff. % ([2]; 500 ppm of active ingredient): 78%
OC(Cc1ccnc(Cl)c1F)(Cn1cncn1)c1ccc(Cl)nc1 (racemic) [Example I-86],1.23^[a],–,Eff. % ([2]; 500 ppm of active ingredient): 72%
OC(Cc1cncc(Cl)n1)(Cn1cncn1)C1(Cl)CC1 (centres unmarked) [Example I-9],1.72^[a],–,Eff. % ([1]; 100 ppm of active ingredient): 94%
Cc1cnc(CC(O)(Cn2cncn2)C2(Cl)CC2)c(Cl)n1 (centres unmarked) [Example I-10],2.05^[a],–,Eff. % ([1]; 100 ppm of active ingredient): 75%
OC(Cc1cnccn1)(Cn1cncn1)C1(Cl)CC1 (centres unmarked) [Example I-11],1.13^[a],–,Eff. % ([1]; 100 ppm of active ingredient): 79%; Eff. % [3]: 75%
OC(Cc1ccccc1F)(Cc1ccncc1Cl)Cn1cncn1 (centres unmarked) [Example I-12],1.96^[a],–,Eff. % ([1]; 100 ppm of active ingredient): 100%; Eff. % ([2]; 100 ppm of active ingredient): 88%
OC(Cc1ccncc1Cl)(Cn1cncn1)c1ccc(Cl)nc1 (centres unmarked) [Example I-13],1.26^[a],–,Eff. % ([1]; 100 ppm of active ingredient): 94%; Eff. % [3]: 95%
OC(Cc1cccc(Cl)c1)(Cc1ccncc1Cl)Cn1cncn1 (centres unmarked) [Example I-15],2.27^[a],–,Eff. % ([1]; 100 ppm of active ingredient): 98%; Eff. % ([2]; 100 ppm of active ingredient): 94%
OC(Cc1ccccc1F)(Cc1ccncc1F)Cn1cncn1 (centres unmarked) [Example I-20],1.63^[a],–,–
OC(Cc1cccc(Cl)c1)(Cc1ccncc1F)Cn1cncn1 (centres unmarked) [Example I-22],2.00^[a],–,Eff. % ([2]; 100 ppm of active ingredient): 88%
OC(Cc1cc(Cl)nc(Cl)c1)(Cn1cncn1)C1(Cl)CC1 (centres unmarked) [Example I-26],2.54^[a],–,Eff. % ([1]; 100 ppm of active ingredient): 100%; Eff. % ([2]; 100 ppm of active ingredient): 97%
C[Si](C)(C)OC(Cc1cnccn1)(Cn1cncn1)C1(Cl)CC1 (centres unmarked) [Example I-28],2.75^[a],–,–
OC(Cc1ccnc(Cl)c1)(Cn1cncn1)c1cccnc1Cl (centres unmarked) [Example I-34],1.35^[a],–,Eff. % ([1]; 100 ppm of active ingredient): 100%
OC(Cc1ccnc(Cl)c1)(Cc1ccccc1F)Cn1cncn1 (centres unmarked) [Example I-35],2.06^[a],–,Eff. % ([1]; 100 ppm of active ingredient): 78%
OC(Cc1cccc(Cl)c1)(Cc1ccnc(Cl)c1)Cn1cncn1 (centres unmarked) [Example I-37],2.42^[a],–,–
OC(Cc1ccnc(Cl)c1)(Cn1cncn1)c1ccc(Cl)nc1 (centres unmarked) [Example I-38],1.38^[a],–,Eff. % ([1]; 100 ppm of active ingredient): 100%

Compound,LogP (pH 2.7),LogP [4],also measured
OC(Cc1cc(Cl)ncc1F)(Cn1cncn1)c1ccc(Cl)nc1 (centres unmarked) [Example I-42],1.60^[a],–,Eff. % ([1]; 100 ppm of active ingredient): 98%
OC(Cc1cc(Cl)ncc1F)(Cn1cncn1)c1cccnc1Cl (centres unmarked) [Example I-43],1.57^[a],–,Eff. % ([1]; 100 ppm of active ingredient): 100%
OC(Cc1cc(Cl)ccn1)(Cn1cncn1)C1(Cl)CC1 (centres unmarked) [Example I-47],2.02^[a],–,–
Cc1ccnc(CC(O)(Cn2cncn2)C2(Cl)CC2)c1 (centres unmarked) [Example I-52],0.52^[a],–,–
OC(Cc1cc(Cl)nc2ccccc12)(Cn1cncn1)C1(Cl)CC1 (centres unmarked) [Example I-92],2.69^[a],–,–
CC1(C(O)(Cc2ccnnc2Cl)Cn2cncn2)CC1 (centres unmarked) [Example I-93],1.28^[a],–,–
OC(Cc1nc(Cl)ccc1Cl)(Cn1cncn1)C1(Cl)CC1 (centres unmarked) [Example I-96],2.73^[a],–,–
OC(Cc1ncc(Cl)cc1Cl)(Cn1cncn1)C1(Cl)CC1 (centres unmarked) [Example I-97],2.88^[a],–,–
O=C(Cc1ccc2ccccc2n1)C1(Cl)CC1 [Example V-1],–,3.39^[a],–
O=C(Cc1ncccc1Cl)C1(Cl)CC1 [Example V-2],–,2.40^[a],–
O=C(Cc1ccncc1Cl)C1(Cl)CC1 [Example V-4],–,2.13^[a],–
O=C(Cc1cc(Cl)nc(Cl)c1)C1(Cl)CC1 [Example V-5],–,3.25^[a],–
O=C(Cc1ccc(Cl)nc1)C1(Cl)CC1 [Example V-6],–,2.34^[a],LogP [5]: 2.30^[b];
O=C(Cc1ccncc1Cl)C1(F)CC1 [Example V-7],–,1.76^[a],–
CC(C)(F)C(=O)Cc1ccncc1Cl [Example V-8],–,1.97^[a],–
CC1(C(=O)Cc2cccnc2Cl)CC1 [Example V-9],–,1.96^[a],–
O=C(Cc1cccnc1Cl)C1(c2ccccc2)CC1 [Example V-10],–,3.00^[a],–
CC1(C(=O)Cc2ccncc2Cl)CC1 [Example V-11],–,1.85^[a],–
CC1(C(=O)Cc2ccncc2Cl)CCCCC1 [Example V-12],–,3.23^[a],–
O=C(Cc1cnc2ccccc2c1)C1(Cl)CC1 [Example V-13],–,1.60^[a],–
O=C(Cc1cccnc1F)C1(Cl)CC1 [Example V-16],–,2.07^[a],–

Compound,LogP (pH 2.7),LogP [4],also measured
O=C(Cc1ccc(Cl)nc1Cl)C1(Cl)CC1 [Example V-17],–,3.19^[a],–
Cc1cccc2cc(CC(=O)C3(Cl)CC3)c(Cl)nc12 [Example V-18],–,4.14^[a],–
O=C(Cc1cccnc1)C1(Cl)CC1 [Example V-19],–,0.23^[a],–
O=C(Cc1c(Cl)ccnc1Cl)C1(Cl)CC1 [Example V-20],–,2.96^[a],–
O=C(Cc1cc(Cl)cnc1Cl)C1(Cl)CC1 [Example V-21],–,3.12^[a],–
ClC1(C2(Cc3ccc4ccccc4n3)CO2)CC1 (centres unmarked) [XII-1],–,1.74^[a],–
Clc1ccc(CC2(C3(Cl)CC3)CO2)cn1 (centres unmarked) [XII-2],–,2.84,LogP [5]: 2.83
Clc1cccnc1CC1(C2(Cl)CC2)CO1 (centres unmarked) [XII-4],–,2.69^[a],–
Clc1ncccc1CC1(C2(Cl)CC2)CO1 (centres unmarked) [XII-5],–,2.69^[a],–
Fc1cnccc1CC1(C2(Cl)CC2)CO1 (centres unmarked) [XII-6],–,2.13^[a],–
Fc1cnccc1CC1(C2(F)CC2)CO1 (centres unmarked) [XII-7],–,1.63^[a],–
CC(CF)(CF)C1(Cc2ccncc2F)CO1 (centres unmarked) [XII-8],–,1.79^[a],–
FC1(C2(Cc3ccnc(Cl)c3)CO2)CC1 (centres unmarked) [XII-9],–,2.27^[a],–
CC(CF)(CF)C1(Cc2ccnc(Cl)c2)CO1 (centres unmarked) [XII-10],–,2.38^[a],–
Clc1cc(CC2(C3(Cl)CC3)CO2)ccn1 (centres unmarked) [XII-11],–,2.80^[a],–
CC(CF)(CF)C1(Cc2cc(Cl)ncc2F)CO1 (centres unmarked) [XII-12],–,2.69^[a],–
Fc1cnc(Cl)cc1CC1(C2(F)CC2)CO1 (centres unmarked) [XII-13],–,2.57^[a],–
Fc1cnc(Cl)cc1CC1(C2(Cl)CC2)CO1 (centres unmarked) [XII-14],–,3.15^[a],–
CC(C)(Cl)C1(Cc2ccncc2Cl)CO1 (centres unmarked) [XII-15],–,2.57^[a],–
Clc1cnccc1CC1(C2(Cl)CCCC2)CO1 (centres unmarked) [XII-16],–,3.42^[a],–
Clc1cnccc1CC1(C2(Cl)CCCCC2)CO1 (centres unmarked) [XII-17],–,3.80^[a],–

Compound,LogP (pH 2.7),LogP [4],also measured
CC(CF)(CF)C1(Cc2ccncc2Cl)CO1 (centres unmarked) [XII-18],–,2.16^[a],–
FC1(C2(Cc3ccncc3Cl)CO2)CC1 (centres unmarked) [XII-19],–,2.06^[a],–
Fc1cc(CC2(C3(Cl)CC3)CO2)c(Cl)cn1 (centres unmarked) [XII-20],–,3.41^[a],–
Fc1cc(CC2(C3(F)CC3)CO2)c(Cl)cn1 (centres unmarked) [XII-21],–,2.80^[a],–
CC(CF)(CF)C1(Cc2cc(F)ncc2Cl)CO1 (centres unmarked) [XII-22],–,2.84^[a],–
FC1(C2(Cc3cccnc3Cl)CO2)CC1 (centres unmarked) [XII-23],–,2.18^[a],–
Clc1cc(CC2(C3(Cl)CC3)CO2)cc(Cl)n1 (centres unmarked) [XII-24],–,3.80^[a],–
ClC1(C2(Cc3ccncn3)CO2)CC1 (centres unmarked) [XII-25],–,1.44^[a],–
Fc1c(CC2(C3(Cl)CC3)CO2)ccnc1Cl (centres unmarked) [XII-26],–,3.11^[a],–
CC(CF)(CF)C1(Cc2ccnc(Cl)c2F)CO1 (centres unmarked) [XII-27],–,2.65^[a],–
Fc1c(CC2(C3(F)CC3)CO2)ccnc1Cl (centres unmarked) [XII-28],–,2.53^[a],–
Clc1ccc(CC2(C3(Cl)CC3)CO2)c(Cl)n1 (centres unmarked) [XII-30],–,3.71^[a],–
Fc1ncccc1CC1(C2(Cl)CC2)CO1 (centres unmarked) [XII-31],–,2.47^[a],–
Clc1cncc(Cl)c1CC1(C2(Cl)CC2)CO1 (centres unmarked) [XII-32],–,3.68^[a],–
CC(CF)(CF)C1(Cc2c(Cl)cncc2Cl)CO1 (centres unmarked) [XII-33],–,2.89^[a],–
FC1(C2(Cc3c(Cl)cncc3Cl)CO2)CC1 (centres unmarked) [XII-34],–,2.93^[a],–
FC(F)(F)c1cnccc1CC1(C2(Cl)CC2)CO1 (centres unmarked) [XII-38],–,3.04^[a],–
Cc1cccc2cc(CC3(C4(Cl)CC4)CO3)c(Cl)nc12 (centres unmarked) [XII-39],–,4.90^[a],–
Clc1ccnc(Cl)c1CC1(C2(Cl)CC2)CO1 (centres unmarked) [XII-40],–,3.53^[a],–
Clc1cnc(Cl)c(CC2(C3(Cl)CC3)CO2)c1 (centres unmarked) [XII-41],–,3.87^[a],–
Clc1cc(CC2(C3(Cl)CC3)CO2)c(Cl)cn1 (centres unmarked) [XII-42],–,3.70^[a],–
